Assay results reported in ChEMBL document CHEMBL3885881, “DrugMatrix”.

Organism: Rattus norvegicus
Experiment: DrugMatrix - Regimen: Daily Repeat
Type: toxicity, organism-based, Sprague-Dawley
Set-up: regimen Daily Repeat, gender Male, age 6-8 weeks
Details: in vivo, po, 30 mg/kg, route oral GAVAGE, dose level Low, […]; for ABSOLUTE BASOPHIL / ABSOLUTE EOSINOPHIL / ABSOLUTE LYMPHOCYTE / ABSOLUTE MONOCYTE / ABSOLUTE SEGMENTED NEUTROPHIL / BASOPHIL / EOSINOPHIL / ERYTHROCYTE COUNT / HEMATOCRIT / HEMOGLOBIN / LEUKOCYTE COUNT / LYMPHOCYTE / MEAN CORPUSCULAR HEMOGLOBIN / MEAN CORPUSCULAR HEMOGLOBIN CONCENTRATION / MEAN CORPUSCULAR VOLUME / MONOCYTE / NEUTROPHIL / NUCLEATED RED BLOOD CELLS / PLATELET COUNT: tissue Blood; for ALANINE AMINOTRANSFERASE / ALBUMIN / ALKALINE PHOSPHATASE / ASPARTATE AMINOTRANSFERASE / BLOOD UREA NITROGEN / CARBON DIOXIDE / CHLORIDE / CHOLESTEROL / CREATINE PHOSPHOKINASE / CREATININE / GLUCOSE / LACTATE DEHYDROGENASE / LIPASE / PHOSPHORUS / POTASSIUM / SODIUM / TOTAL BILIRUBIN / TOTAL PROTEIN / URIC ACID: tissue Plasma

## CS(=O)(=O)Nc1ccc([N+](=O)[O-])cc1Oc1ccccc1 [NIMESULIDE]
72 h, time 3 day
  ABSOLUTE BASOPHIL: 0 CELLS/uL
  ABSOLUTE EOSINOPHIL: 25.33 CELLS/uL
  ABSOLUTE LYMPHOCYTE: 7491.33 CELLS/uL
  ABSOLUTE MONOCYTE: 125 CELLS/uL
  ABSOLUTE SEGMENTED NEUTROPHIL: 858.33 CELLS/uL
  BASOPHIL: 0%
  EOSINOPHIL: 0.33%
  ERYTHROCYTE COUNT: 5.1 x10E6/uL
  HEMATOCRIT: 33.1%
  HEMOGLOBIN: 12.87 G/DL
  LEUKOCYTE COUNT: 8.5 x10E3/uL
  LYMPHOCYTE: 88%
  MEAN CORPUSCULAR HEMOGLOBIN: 25.23 pg
  MEAN CORPUSCULAR HEMOGLOBIN CONCENTRATION: 38.87 G/DL
  MEAN CORPUSCULAR VOLUME: 64.93 fL
  MONOCYTE: 1.33%
  NEUTROPHIL: 10.33%
  NUCLEATED RED BLOOD CELLS: 0 /100WBC
  PLATELET COUNT: 1037.67 x10E3/uL
  ALANINE AMINOTRANSFERASE: 125.67 u/L
  ALBUMIN: 4.17 G/DL
  ALKALINE PHOSPHATASE: 434 u/L
  ASPARTATE AMINOTRANSFERASE: 117 u/L
  BLOOD UREA NITROGEN: 11 mg/dL
  CARBON DIOXIDE: 35 mmol/L
  CHLORIDE: 106.33 MEQ/L
  CHOLESTEROL: 78 mg/dL
  CREATINE PHOSPHOKINASE: 456.33 u/L
  CREATININE: 0.28 mg/dL
  GLUCOSE: 158.67 mg/dL
  LACTATE DEHYDROGENASE: 119.33 u/L
  LIPASE: 11 u/L
  PHOSPHORUS: 8.8 mg/dL
  POTASSIUM: 5.65 MEQ/L
  SODIUM: 146.27 MEQ/L
  TOTAL BILIRUBIN: 0.13 mg/dL
  TOTAL PROTEIN: 5.7 G/DL
  URIC ACID: 0.63 mg/dL
120 h, time 5 day
  ABSOLUTE BASOPHIL: 0 CELLS/uL
  ABSOLUTE EOSINOPHIL: 83.33 CELLS/uL
  ABSOLUTE LYMPHOCYTE: 10811.33 CELLS/uL
  ABSOLUTE MONOCYTE: 335.67 CELLS/uL
  ABSOLUTE SEGMENTED NEUTROPHIL: 1536.33 CELLS/uL
  BASOPHIL: 0%
  EOSINOPHIL: 0.33%
  ERYTHROCYTE COUNT: 5.57 x10E6/uL
  HEMATOCRIT: 36.37%
  HEMOGLOBIN: 13.93 G/DL
  LEUKOCYTE COUNT: 12.77 x10E3/uL
  LYMPHOCYTE: 87.33%
  MEAN CORPUSCULAR HEMOGLOBIN: 25 pg
  MEAN CORPUSCULAR HEMOGLOBIN CONCENTRATION: 38.33 G/DL
  MEAN CORPUSCULAR VOLUME: 65.23 fL
  MONOCYTE: 2.33%
  NEUTROPHIL: 10%
  NUCLEATED RED BLOOD CELLS: 0 /100WBC
  PLATELET COUNT: 1176 x10E3/uL
  ALANINE AMINOTRANSFERASE: 52 u/L
  ALBUMIN: 4.27 G/DL
  ALKALINE PHOSPHATASE: 326 u/L
  ASPARTATE AMINOTRANSFERASE: 65.67 u/L
  BLOOD UREA NITROGEN: 16 mg/dL
  CARBON DIOXIDE: 24.67 mmol/L
  CHLORIDE: 108.33 MEQ/L
  CHOLESTEROL: 74.67 mg/dL
  CREATINE PHOSPHOKINASE: 187 u/L
  CREATININE: 0.16 mg/dL
  GLUCOSE: 176.33 mg/dL
  LACTATE DEHYDROGENASE: 75.67 u/L
  LIPASE: 10.33 u/L
  PHOSPHORUS: 10.53 mg/dL
  POTASSIUM: 4.45 MEQ/L
  SODIUM: 149.7 MEQ/L
  TOTAL BILIRUBIN: 0.1 mg/dL
  TOTAL PROTEIN: 6.33 G/DL
  URIC ACID: 0.6 mg/dL
